Our source for the EC50 values is patent US20140235592A1, “SUBSTITUTED 6-METHOXY-4-AMINO-N-PHENYL-2-NAPHTAMIDES AS SPHINGOSINE RECEPTOR MODULATORS” (Allergan, Inc., priority 2013, published 2014).

The structures appear in SMILES notation.

T1 sequence (P21453 whole entry): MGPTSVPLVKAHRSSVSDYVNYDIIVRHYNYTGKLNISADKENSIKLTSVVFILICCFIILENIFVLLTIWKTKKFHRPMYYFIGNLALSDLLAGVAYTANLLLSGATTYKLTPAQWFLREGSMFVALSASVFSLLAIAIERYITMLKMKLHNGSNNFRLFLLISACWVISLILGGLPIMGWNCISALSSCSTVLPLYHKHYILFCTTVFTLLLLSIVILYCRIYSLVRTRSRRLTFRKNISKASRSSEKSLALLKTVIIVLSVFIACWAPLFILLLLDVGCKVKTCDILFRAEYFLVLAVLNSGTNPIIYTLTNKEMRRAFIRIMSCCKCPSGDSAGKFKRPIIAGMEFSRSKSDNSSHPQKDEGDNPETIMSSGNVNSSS

The test addresses T1, human S1P1 receptor (Homo sapiens, UniProt P21453).
T1 construct: expressed in transfected cells; membranes used
Description: GTP γ35S binding assay for S1P1 activity. It is filed as biochemical. To be noted: membranes of cells stably expressing the S1P1 receptor, test concentrations 0.08 to 5,000 nM. Here is the method: Compounds were tested for S1 P1 activity using the GTP γ^35S binding assay. These compounds may be assessed for their ability to activate or block activation of the human S1 P1 receptor in cells stably expressing the S1 P1 receptor. GTP γ^35S binding was measured in the medium containing (mM) HEPES 25, pH 7.4, MgCl2 10, NaCl 100, dithiothreitol 0.5, digitonin 0.003%, 0.2 nM GTP γ^355, and 5 μg membrane protein in a volume of 150 μl. Test compounds were included in the concentration range from 0.08 to 5,000 nM unless indicated otherwise. Membranes were incubated with 100 μM 5′-adenylylimmidodiphosphate for 30 min, and subsequently with 10 μM GDP for 10 min on ice. Drug solutions and membrane were mixed, and then reactions were initiated by adding GTP γ^35S and continued for 30 min at 25° C. Reaction mixtures were filtered over Whatman GF/B filters under vacuum, and washed three times with 3 mL of ice-cold buffer (HEPES 25, pH7.4, MgCl2 10 and NaCl 100). Filters were dried and mixed with scintillant, and counted for ^35S activity using a β-counter. Agonist-induced GTP γ^355 binding was obtained by subtracting that in the absence of agonist. Binding data were analyzed using a non-linear regression method. In case of antagonist assay, the reaction mixture contained 10 nM S1P in the presence of test antagonist at concentrations ranging from 0.08 to 5000 nM.
On the technique in general: Binding of GTPγS marks nucleotide exchange on a G protein.
The term EC50 denotes the midpoint of the concentration-response curve. A lower EC50 goes with greater potency. `COc1ccc2cc(C(=O)Nc3ccc(CNCCCP(=O)(O)O)cc3)cc(N(C)CC3CC3)c2c1` [Compound 3, [3-({4-[({4-[(cyclopropylmethyl)(methyl)amino]-6-methoxynaphthalen-2-yl}carbonyl)amino]benzyl}amino)propyl]phosphonic acid] had a concentration for a half-maximal effect (EC50) of 138 nM. Under `CCN(CC1CC1)c1cc(C(=O)Nc2ccc(CNCCCP(=O)(O)O)cc2)cc2ccc(OC)cc12` [Compound 5, [3-({4-[({4-[(cyclopropylmethyl)(ethyl)amino]-6-methoxynaphthalen-2-yl}carbonyl)amino]benzyl}amino)propyl]phosphonic acid] stands 401 nM; under `CCN(CC)c1cc(C(=O)Nc2ccc(CNCCCP(=O)(O)O)cc2)cc2ccc(OC)cc12` [Compound 7, (3-{[4-({[4-(diethylamino)-6-methoxynaphthalen-2-yl]carbonyl}amino)benzyl]amino}propyl)phosphonic acid], 95 nM. Regarding `CCCN(C)c1cc(C(=O)Nc2ccc(CNCCCP(=O)(O)O)cc2)cc2ccc(OC)cc12` [Compound 8, [3-({4-[({6-methoxy-4-[methyl(propyl)amino]naphthalen-2-yl}carbonyl)amino]benzyl}amino)propyl]phosphonic acid], a half-maximal response (EC50) required 160 nM. Against the preceding molecule, the EC50 is about 1.7-fold higher. In turn, `COc1ccc2cc(C(=O)Nc3ccc(CNCCCP(=O)(O)O)cc3)cc(N(C)C)c2c1` [Compound 9, (3-{[4-({[4-(dimethylamino)-6-methoxynaphthalen-2-yl]carbonyl}amino)benzyl]amino}propyl)phosphonic acid] showed a concentration for a half-maximal effect (EC50) of 494 nM.
